Results: PMC6199744, “Development of Chemical Proteomics for the Folateome and Analysis of the Kinetoplastid Folateome” (ACS Infectious Diseases, 2018)
Like-named read-outs stand apart in the source and are kept apart here.

How the values were obtained:
Type in all cases: binding
[1] = target: T1, HeLa cell extract proteins (Homo sapiens, UniProt P05166)
T1 construct: endogenous in cells; host or cells: HeLa cell extract
T1 sequence (P05166 29-539): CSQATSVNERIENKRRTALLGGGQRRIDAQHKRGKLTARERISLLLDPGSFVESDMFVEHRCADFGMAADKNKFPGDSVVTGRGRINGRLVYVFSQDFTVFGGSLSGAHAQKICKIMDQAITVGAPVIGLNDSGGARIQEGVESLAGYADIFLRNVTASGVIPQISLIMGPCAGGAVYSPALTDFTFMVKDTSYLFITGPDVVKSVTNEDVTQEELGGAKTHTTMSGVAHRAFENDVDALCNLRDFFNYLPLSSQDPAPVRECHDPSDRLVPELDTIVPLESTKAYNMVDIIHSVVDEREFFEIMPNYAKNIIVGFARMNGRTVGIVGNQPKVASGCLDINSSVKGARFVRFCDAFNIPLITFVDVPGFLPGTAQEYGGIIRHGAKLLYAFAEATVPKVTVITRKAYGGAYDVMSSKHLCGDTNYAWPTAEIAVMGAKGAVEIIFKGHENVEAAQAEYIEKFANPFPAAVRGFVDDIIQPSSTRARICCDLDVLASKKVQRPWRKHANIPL

[2] = target: T2, HeLa cell extract proteins (Homo sapiens, UniProt P22314)
T2 construct: endogenous in cells; host or cells: HeLa cell extract
T2 sequence (P22314 1-1058): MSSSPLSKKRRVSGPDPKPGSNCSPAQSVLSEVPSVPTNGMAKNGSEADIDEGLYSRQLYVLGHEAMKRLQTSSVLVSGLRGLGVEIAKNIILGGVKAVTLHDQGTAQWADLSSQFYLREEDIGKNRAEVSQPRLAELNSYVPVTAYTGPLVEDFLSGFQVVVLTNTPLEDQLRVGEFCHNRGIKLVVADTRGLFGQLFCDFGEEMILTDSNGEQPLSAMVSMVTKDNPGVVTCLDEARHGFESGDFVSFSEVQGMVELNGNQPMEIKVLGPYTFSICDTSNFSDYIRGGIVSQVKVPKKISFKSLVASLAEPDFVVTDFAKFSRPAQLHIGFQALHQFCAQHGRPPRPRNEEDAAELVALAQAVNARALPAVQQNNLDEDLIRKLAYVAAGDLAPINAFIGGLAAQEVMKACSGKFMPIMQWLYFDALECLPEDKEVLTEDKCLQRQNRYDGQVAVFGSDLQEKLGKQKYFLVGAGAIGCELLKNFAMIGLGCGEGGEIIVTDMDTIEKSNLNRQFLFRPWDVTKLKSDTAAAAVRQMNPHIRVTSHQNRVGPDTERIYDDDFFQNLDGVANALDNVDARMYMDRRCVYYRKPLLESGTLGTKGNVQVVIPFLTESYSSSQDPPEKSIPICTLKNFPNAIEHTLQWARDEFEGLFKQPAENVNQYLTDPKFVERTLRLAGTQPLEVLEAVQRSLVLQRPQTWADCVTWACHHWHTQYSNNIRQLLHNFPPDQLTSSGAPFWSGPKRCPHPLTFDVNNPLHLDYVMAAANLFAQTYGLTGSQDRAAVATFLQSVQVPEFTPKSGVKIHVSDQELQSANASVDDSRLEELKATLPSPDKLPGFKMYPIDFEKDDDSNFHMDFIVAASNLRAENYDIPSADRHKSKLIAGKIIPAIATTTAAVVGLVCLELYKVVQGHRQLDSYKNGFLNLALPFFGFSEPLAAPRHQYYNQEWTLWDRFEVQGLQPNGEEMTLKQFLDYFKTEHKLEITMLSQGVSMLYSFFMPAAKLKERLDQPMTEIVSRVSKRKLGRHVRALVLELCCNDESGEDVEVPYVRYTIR

[3] = target: T3, HeLa cell extract proteins (Homo sapiens, UniProt P40926)
T3 construct: endogenous in cells; host or cells: HeLa cell extract
T3 sequence (P40926 25-338): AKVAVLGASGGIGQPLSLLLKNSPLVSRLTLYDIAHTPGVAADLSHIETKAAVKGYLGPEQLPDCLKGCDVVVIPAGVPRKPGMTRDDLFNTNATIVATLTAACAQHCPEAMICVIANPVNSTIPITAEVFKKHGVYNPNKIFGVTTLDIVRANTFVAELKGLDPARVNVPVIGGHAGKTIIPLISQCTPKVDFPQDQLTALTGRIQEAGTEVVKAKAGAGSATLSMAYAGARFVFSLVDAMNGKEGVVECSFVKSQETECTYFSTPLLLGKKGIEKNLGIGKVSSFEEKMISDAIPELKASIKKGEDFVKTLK

[4] = target: T4, HeLa cell extract proteins (Homo sapiens, UniProt Q53GQ0)
T4 construct: endogenous in cells; host or cells: HeLa cell extract
T4 sequence (Q53GQ0 1-312): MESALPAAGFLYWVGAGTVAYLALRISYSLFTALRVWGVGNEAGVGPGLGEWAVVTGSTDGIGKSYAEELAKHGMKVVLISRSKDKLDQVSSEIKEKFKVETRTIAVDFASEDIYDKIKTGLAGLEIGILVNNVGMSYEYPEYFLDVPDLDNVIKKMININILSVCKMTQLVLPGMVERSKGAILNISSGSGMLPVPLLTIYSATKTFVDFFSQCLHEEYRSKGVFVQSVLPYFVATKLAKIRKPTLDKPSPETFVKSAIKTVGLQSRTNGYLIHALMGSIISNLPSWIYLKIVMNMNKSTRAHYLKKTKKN

[5] = target: T5, HeLa cell extract proteins (Homo sapiens, UniProt Q96KA5)
T5 construct: endogenous in cells; host or cells: HeLa cell extract
T5 sequence (Q96KA5 1-538): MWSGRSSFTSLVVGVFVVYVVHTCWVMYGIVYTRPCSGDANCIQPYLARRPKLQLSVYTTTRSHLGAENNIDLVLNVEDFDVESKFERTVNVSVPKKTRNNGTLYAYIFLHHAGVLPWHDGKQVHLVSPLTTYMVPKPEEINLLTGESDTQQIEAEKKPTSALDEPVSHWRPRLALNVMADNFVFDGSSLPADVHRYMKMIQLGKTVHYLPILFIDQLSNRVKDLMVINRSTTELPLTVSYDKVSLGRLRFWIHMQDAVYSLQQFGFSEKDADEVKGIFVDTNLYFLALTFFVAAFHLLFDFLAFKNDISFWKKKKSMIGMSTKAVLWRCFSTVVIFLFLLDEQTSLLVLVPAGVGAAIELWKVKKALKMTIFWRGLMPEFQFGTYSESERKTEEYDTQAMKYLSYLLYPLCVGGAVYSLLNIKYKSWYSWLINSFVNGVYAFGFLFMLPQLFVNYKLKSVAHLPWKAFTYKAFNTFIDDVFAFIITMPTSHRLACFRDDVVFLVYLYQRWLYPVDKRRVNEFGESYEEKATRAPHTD

[6] = captured protein HSD17B12, HeLa

For `Nc1nc2c(c(=O)[nH]1)N(C=O)C(CNc1ccc(C(=O)N[C@@H](CCC(=O)O)C(=O)O)cc1)CN2` (some centres unmarked) [LEU, leucovorin], the “fold changes relative to vehicle control” value ([1]; HeLa, protein PCCB) was 0.97, the “fold changes relative to vehicle control” value ([2]; HeLa, protein UBA1) was 1.05 and the “fold changes relative to vehicle control” value ([3]; HeLa, protein MDH2) was 1.06. For the same molecule, the “fold changes relative to vehicle control” value ([4]; protein HSD17B12, HeLa) was 0.78 and the “fold changes relative to vehicle control” value ([5]; protein CLPTM1L, HeLa) was 0.77.

With `Nc1nc2[nH]cc(CCc3ccc(C(=O)N[C@@H](CCC(=O)O)C(=O)O)cc3)c2c(=O)[nH]1` [PTX, pemetrexed] the “fold changes relative to vehicle control” value [1] was 0.22, the “fold changes relative to vehicle control” value [2] was 0.96 and the “fold changes relative to vehicle control” value [3] was 1.11. For the same molecule, the “fold changes relative to vehicle control” value [4] was 0.91 and the “fold changes relative to vehicle control” value [5] was 0.91.

`CCCCCCOc1ccc(Cc2cnc(N)nc2N)cc1` [compound 1] was tested, and the “fold changes relative to vehicle control” value ([1]; captured protein PCCB, HeLa) was 0.99, the “fold changes relative to vehicle control” value ([2]; protein UBA1, HeLa) was 0.77 and the “fold changes relative to vehicle control” value ([3]; protein MDH2, HeLa) was 1.26. For the same molecule, the “fold changes relative to vehicle control” value [4, 6] was 0.87 and the “fold changes relative to vehicle control” value ([5]; captured protein CLPTM1L, HeLa) was 0.84.

`CCCCCCOc1cccc(Cc2cnc(N)nc2N)c1` [compound 2] was tested, and the “fold changes relative to vehicle control” value ([1]; captured protein PCCB, HeLa) was 0.92, the “fold changes relative to vehicle control” value ([2]; protein UBA1, HeLa) was 1.62 and the “fold changes relative to vehicle control” value ([3]; protein MDH2, HeLa) was 1.97. The “fold changes relative to vehicle control” value [4, 6] was 0.91 and the “fold changes relative to vehicle control” value ([5]; captured protein CLPTM1L, HeLa) was 1.05.

For `Nc1nc2cccc(-c3ccccc3)c2n1Cc1ccc(Cl)c(Cl)c1` [compound 3], the “fold changes relative to vehicle control” value ([1]; captured protein PCCB, HeLa) was 1, the “fold changes relative to vehicle control” value ([2]; protein UBA1, HeLa) was 0.75 and the “fold changes relative to vehicle control” value ([3]; protein MDH2, HeLa) was 0.92. For the same molecule, the “fold changes relative to vehicle control” value [4, 6] was 1.15 and the “fold changes relative to vehicle control” value ([5]; captured protein CLPTM1L, HeLa) was 1.14.

For `NCCOCCOCC(=O)Nc1nc2ncc(CNc3ccc(C(=O)NC(CCC(=O)O)C(=O)O)cc3)nc2c(=O)[nH]1` (centres unmarked) [compound 6], the “fold changes relative to vehicle control” value ([1]; HeLa, protein PCCB) was 0.91, the “fold changes relative to vehicle control” value ([2]; HeLa, protein UBA1) was 1.15 and the “fold changes relative to vehicle control” value ([3]; HeLa, protein MDH2) was 1.34. For the same molecule, the “fold changes relative to vehicle control” value ([4]; protein HSD17B12, HeLa) was 0.96 and the “fold changes relative to vehicle control” value ([5]; protein CLPTM1L, HeLa) was 1.01.

`NCCCNc1ccc(C(=O)NC(CCC(=O)O)C(=O)O)cc1` (centres unmarked) [compound 7] was tested, and the “fold changes relative to vehicle control” value ([1]; HeLa, protein PCCB) was 1.17, the “fold changes relative to vehicle control” value ([2]; HeLa, protein UBA1) was 0.92 and the “fold changes relative to vehicle control” value ([3]; HeLa, protein MDH2) was 0.96. For the same molecule, the “fold changes relative to vehicle control” value ([4]; protein HSD17B12, HeLa) was 1.19 and the “fold changes relative to vehicle control” value ([5]; protein CLPTM1L, HeLa) was 0.9.
